According to patent US12692233B2, “Anthelmintic compounds comprising a pyridine structure” (Intervet Inc., priority 2020, dated 2026):

Assays:
[1] = molecular target: T1, human Maxi K channel (BK channel) (Homo sapiens, UniProt Q12791); experiment: Agonistic activity at the human Maxi K channel (BK channel), FLIPR membrane potential in CHO K1 cells; format: cell-based; conditions: CHO K1 cells stably transfected with KCNMA1 and beta1 (KCNMB1) subunits, membrane potential dye
T1 construct: expressed in transfected cells; host or cells: CHO K1
T1 sequence (Q12791 1-1178 isoform Q12791-5): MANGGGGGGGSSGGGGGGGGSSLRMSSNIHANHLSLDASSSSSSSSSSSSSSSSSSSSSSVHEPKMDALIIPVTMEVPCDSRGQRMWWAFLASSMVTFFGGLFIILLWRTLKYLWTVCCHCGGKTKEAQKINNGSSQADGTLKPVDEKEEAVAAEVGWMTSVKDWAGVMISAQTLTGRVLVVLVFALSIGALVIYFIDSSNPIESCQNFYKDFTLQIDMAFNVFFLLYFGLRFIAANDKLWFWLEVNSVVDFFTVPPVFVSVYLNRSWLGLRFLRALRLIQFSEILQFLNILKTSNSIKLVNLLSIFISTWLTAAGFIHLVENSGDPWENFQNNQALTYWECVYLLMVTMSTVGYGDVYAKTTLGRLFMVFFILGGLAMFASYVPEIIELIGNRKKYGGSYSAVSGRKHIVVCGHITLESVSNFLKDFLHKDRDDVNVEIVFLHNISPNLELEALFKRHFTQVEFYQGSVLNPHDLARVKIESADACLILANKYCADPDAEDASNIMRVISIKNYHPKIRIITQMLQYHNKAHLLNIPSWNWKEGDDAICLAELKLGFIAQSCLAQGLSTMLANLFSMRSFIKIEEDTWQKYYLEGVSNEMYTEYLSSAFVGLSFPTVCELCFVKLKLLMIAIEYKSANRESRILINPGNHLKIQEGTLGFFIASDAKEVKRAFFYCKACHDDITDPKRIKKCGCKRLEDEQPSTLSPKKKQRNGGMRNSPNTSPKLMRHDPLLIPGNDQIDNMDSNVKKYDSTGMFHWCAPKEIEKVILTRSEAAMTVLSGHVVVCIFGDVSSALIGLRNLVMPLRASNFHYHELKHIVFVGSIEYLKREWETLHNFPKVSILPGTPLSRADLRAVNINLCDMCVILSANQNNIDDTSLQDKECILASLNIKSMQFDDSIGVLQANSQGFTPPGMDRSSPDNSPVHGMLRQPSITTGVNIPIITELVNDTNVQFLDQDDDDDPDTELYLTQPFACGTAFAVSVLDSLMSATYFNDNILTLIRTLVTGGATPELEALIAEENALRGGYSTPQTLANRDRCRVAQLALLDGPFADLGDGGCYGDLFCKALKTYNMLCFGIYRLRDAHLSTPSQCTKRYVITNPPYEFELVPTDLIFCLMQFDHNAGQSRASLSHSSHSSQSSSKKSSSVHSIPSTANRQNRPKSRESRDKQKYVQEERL
T1 sequence (Q16558 whole entry partner): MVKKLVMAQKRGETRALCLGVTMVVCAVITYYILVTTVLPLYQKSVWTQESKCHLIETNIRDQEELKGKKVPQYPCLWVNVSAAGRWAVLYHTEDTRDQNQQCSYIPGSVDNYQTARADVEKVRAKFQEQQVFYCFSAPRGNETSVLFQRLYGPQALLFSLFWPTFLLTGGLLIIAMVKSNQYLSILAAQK
Excerpt: A CHO K1 cell line was stably transfected with the KCNMA1 (KCa1.1, U11058) and beta1 (KCNMB1) subunits of the human Maxi K channel (Ponte et al, Molecular Pharmacology 2012, 81(4), 567-577).
The complete measurement takes 150 s.

Ascaridia galli = experiment: In vitro assay Ascaridia galli larval stage 3; format: cell-based; conditions: larval stage 3, 20 larvae per well, microscopic examination, read-out: MEC (minimum effective concentration) against Ascaridia galli L3
Excerpt: (§1) […] galli (intestinal roundworm of chicken), larval stage 3 (“L3”); and Oesophagostumum dentatum (nodular worm of swine), larval stages 3 and 4 (respectively “L3” and “L4”) where suspended in a nutrient medium and distributed to 96 well plates with 20 larvae per well. The wells were spiked DMSO solutions of the compounds with declining concentration.

Dirofilaria immitis = experiment: In vitro assay Dirofilaria immitis L1 (microfilaria), motility; format: cell-based; conditions: 72 h, 3 days incubation, reduction in motility vs DMSO
Protocol: (§2) Approximately 500 D. immitis microfilaria were added to a microtiter plate containing a nutrient medium and the test compound in DMSO at varying concentrations. After incubation for 3 days, activity was evaluated as reduction in motility as compared to DMSO as negative control. Compounds were tested in duplicates. Based on the concentration response curves EC50 values were calculated.

Haemonchus contortus = experiment: In vitro assay Haemonchus contortus, motility of exsheathed L3 larvae; format: cell-based; conditions: 168 h, 7 days incubation, motility reduced by 50% with respect to positive control ivermectin, read-out: ED50 against Haemonchus contortus
Protocol: Solutions of compounds with declining concentrations in DMSO were prepared, diluted with nutrient medium and distributed to 96 well microtiterplates. […]3 larvae of Haemonchus contortus were incubated for 20 min at 37° C. in a water bath, separated by centrifugation and added to the wells with 300 Larvae/well. After incubation for 7 days motility was assessed by automated microscopy. Ivermectin was used as positive control, DMSO as negative control and ED50 values were calculated which represent the concentration for an individual compound that reduces motility by 50% with respect to the […].

Acanthocheilonema viteae = experiment: In vitro assay Acanthocheilonema viteae L1 (microfilaria), motility; format: cell-based; conditions: 72 h, 3 days incubation, reduction in motility vs DMSO
Protocol: as §2, with “A. viteae” for “D. immitis”

C. elegans Slo-1a = C. elegans Slo-1a (Caenorhabditis elegans, UniProt Q95V25); experiment: Agonistic activity at C. elegans Slo-1a, FLIPR membrane potential in CHO K1 cells; conditions: EC50 agonistic activity at C. elegans Slo-1a, CHO K1 cells stably transfected with slo-1a, membrane potential dye
Chain of C. elegans Slo-1a (Q95V25 whole entry): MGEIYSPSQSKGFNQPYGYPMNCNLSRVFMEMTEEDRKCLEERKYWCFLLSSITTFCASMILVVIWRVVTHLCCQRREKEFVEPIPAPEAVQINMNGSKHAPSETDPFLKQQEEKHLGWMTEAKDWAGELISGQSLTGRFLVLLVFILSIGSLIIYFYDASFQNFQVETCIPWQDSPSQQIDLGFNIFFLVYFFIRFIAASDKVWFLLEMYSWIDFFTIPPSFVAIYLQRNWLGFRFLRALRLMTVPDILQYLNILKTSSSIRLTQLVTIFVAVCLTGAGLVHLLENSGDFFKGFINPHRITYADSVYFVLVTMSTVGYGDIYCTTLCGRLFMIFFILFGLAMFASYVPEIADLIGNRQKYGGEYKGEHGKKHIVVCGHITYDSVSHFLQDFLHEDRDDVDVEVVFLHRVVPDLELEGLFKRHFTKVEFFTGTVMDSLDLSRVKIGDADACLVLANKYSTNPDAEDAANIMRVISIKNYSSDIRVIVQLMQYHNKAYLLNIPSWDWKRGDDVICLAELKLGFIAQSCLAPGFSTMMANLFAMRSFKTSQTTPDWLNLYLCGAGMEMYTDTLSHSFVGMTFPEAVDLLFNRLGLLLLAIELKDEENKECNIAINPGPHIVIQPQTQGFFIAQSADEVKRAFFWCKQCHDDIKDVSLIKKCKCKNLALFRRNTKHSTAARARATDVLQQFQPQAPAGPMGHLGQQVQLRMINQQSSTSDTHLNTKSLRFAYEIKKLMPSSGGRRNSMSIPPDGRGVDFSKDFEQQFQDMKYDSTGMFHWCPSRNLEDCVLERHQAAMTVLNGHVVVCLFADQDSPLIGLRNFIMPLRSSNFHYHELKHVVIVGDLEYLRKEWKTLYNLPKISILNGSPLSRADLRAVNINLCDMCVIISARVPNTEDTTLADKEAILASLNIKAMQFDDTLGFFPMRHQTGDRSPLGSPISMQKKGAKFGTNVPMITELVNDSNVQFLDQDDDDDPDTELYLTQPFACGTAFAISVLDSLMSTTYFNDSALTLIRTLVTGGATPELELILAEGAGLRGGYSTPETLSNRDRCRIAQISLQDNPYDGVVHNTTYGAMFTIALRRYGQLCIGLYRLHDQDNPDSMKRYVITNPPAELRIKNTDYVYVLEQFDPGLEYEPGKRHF
Protocol: A CHO K1 cell line stably transfected with the Caenorhabditis elegans slo-1a (accession no Y51A2D.19a) was established. Cells were seeded in microtiter plates (black 384-well MTP, clear bottom) in a concentration of 10,000 cells/well in 25 μl medium and cultured for 20 to 24 hours at 37° C. and 5% CO2. After incubation, 25 μl of FMP-dye Blue-Tyrode's was added to each well and incubated at room temperature for 30 min. Ten minutes after addition of 12.5 μl compound solution, the plates are transferred to the FLIPR for measurement.
For the membrane potential measurements, the plates were placed in the FLIPR Penta (Molecular Devices). The baseline measurement of the fluorescence was stared for 20 sec (Exc. 510-545 nm, Emm. 565-625 nm). Potential channel opening measurement was started by addition of 25 μl of KCl-Tyrode (final assay concentration of the KCl-Tyrode: 70 mM KCl, 2 mM CaCl2, 1 mM MgCl2, 0.8 mM NaH2PO4, 5 mM Glucose, 28 mM Hepes, pH 7.4, including the voltage sensitive dye). The complete measurement takes 150 s.
EC50 values were determined in triplicate utilizing compound dilution series. The data were determined at least in two independent tests. The data were proceeded by using the ActivityBase XE Runner software (IDBS) for curve fitting and calculation of the half-maximal effective concentration.

Oesophagostumum dentatum [2] = experiment: In vitro assay Oesophagostumum dentatum larval stage 4; format: cell-based; conditions: larval stage 4, 20 larvae per well, microscopic examination; read-out: MEC (minimum effective concentration) against Oesophagostumum dentatum L4
Excerpt: as §1

Oesophagostumum dentatum [3] = experiment: In vitro assay Oesophagostumum dentatum larval stage 3; format: cell-based; conditions: larval stage 3, 20 larvae per well, microscopic examination; read-out: MEC (minimum effective concentration) against Oesophagostumum dentatum L3
Excerpt: as §1

Compound `CN(C)c1cc(Sc2cc(Cl)cc(Cl)c2)ncc1C(=O)N[C@@H]1CCOc2ccccc21` [Compound 18] has an EC50 [1] greater than 30 µM, a minimal effective concentration (Ascaridia galli) of no more than 50 µM and an EC50 (Dirofilaria immitis) of less than 10 µM. The EC50 (Haemonchus contortus) was less than 50 µM.
Work on `COc1cc(Sc2cc(Cl)cc(Cl)c2)ncc1C(=O)N[C@H]1CCCc2ccccc21` [Compound 82] yielded an EC50 (Acanthocheilonema viteae) of less than 10 µM, an EC50 [1] greater than 30 µM and an EC50 (C. elegans Slo-1a) of less than 10 µM. For the same compound, the EC50 (Dirofilaria immitis) was less than 10 µM, the EC50 (Haemonchus contortus) was less than 50 µM and the minimal effective concentration (Oesophagostumum dentatum [2]) was no more than 50 µM.
Work on `CN(C)c1cc(Oc2cccc(Cl)c2Cl)ncc1C(=O)N[C@H]1CCCc2ccccc21` [Compound 34] yielded an EC50 [1] greater than 30 µM, an EC50 (C. elegans Slo-1a) of less than 1 µM and an EC50 (Haemonchus contortus) of less than 50 µM.
Compound `O=C(N[C@H]1CCCc2ccccc21)c1cnc(Sc2cccc(Cl)c2Cl)cc1N1CCOCC1` [Compound 21] has an EC50 [1] greater than 30 µM, an EC50 (C. elegans Slo-1a) of less than 1 µM and an EC50 (Haemonchus contortus) of less than 50 µM.
`CCOc1cc(Sc2cccc(Cl)c2Cl)ncc1C(=O)N[C@H]1CCc2ccccc21` [Compound 72] was tested, and the EC50 (Acanthocheilonema viteae) was less than 10 µM, the EC50 [1] was greater than 30 µM and the minimal effective concentration (Ascaridia galli) was no more than 50 µM. For the same compound, the EC50 (C. elegans Slo-1a) was less than 10 µM, the EC50 (Dirofilaria immitis) was less than 10 µM and the EC50 (Haemonchus contortus) was less than 50 µM.
For `CN(C)c1cc(Oc2cccc(Cl)c2Cl)ncc1C(=O)Nc1cccc2ccccc12` [Compound 36], the EC50 (Acanthocheilonema viteae) was less than 10 µM, the EC50 [1] was greater than 30 µM and the EC50 (Dirofilaria immitis) was less than 10 µM. The minimal effective concentration (Oesophagostumum dentatum [3]) was no more than 50 µM and the minimal effective concentration (Oesophagostumum dentatum [2]) was no more than 50 µM.
Compound `CN(C)c1cc(Sc2cccc(Cl)c2Cl)ncc1C(=O)N[C@@H]1CCOc2ccccc21` [Compound 39] has an EC50 (Acanthocheilonema viteae) of less than 10 µM, an EC50 [1] greater than 30 µM and an EC50 (Dirofilaria immitis) of less than 10 µM. It also gave a minimal effective concentration (Oesophagostumum dentatum [3]) of no more than 50 µM.
With `CCSc1cc(Sc2cc(Cl)cc(Cl)c2)ncc1C(=O)N[C@H]1CCc2ccccc21` [Compound 73] the EC50 [1] was greater than 30 µM, the minimal effective concentration (Oesophagostumum dentatum [3]) was no more than 50 µM and the EC50 (Haemonchus contortus) was less than 50 µM.
`CSc1cc(Sc2cccc(Cl)c2Cl)ncc1C(=O)N[C@H]1CCOc2ccccc21` [Compound 52] was tested, and the EC50 [1] was greater than 30 µM, the minimal effective concentration (Ascaridia galli) was no more than 50 µM and the EC50 (C. elegans Slo-1a) was less than 10 µM. The minimal effective concentration (Oesophagostumum dentatum [3]) was no more than 50 µM and the EC50 (Haemonchus contortus) was less than 50 µM.
Work on `CSc1cc(Sc2cc(Cl)cc(Cl)c2)ncc1C(=O)N[C@@H]1CCOc2ccccc21` [Compound 55] yielded an EC50 [1] greater than 30 µM and an EC50 (Haemonchus contortus) of less than 50 µM.
`CN(C)c1cc(Oc2cccc(Cl)c2Cl)ncc1C(=O)N[C@H]1CCc2ccccc21` [Compound 35] gave an EC50 [1] greater than 30 µM, an EC50 (C. elegans Slo-1a) of less than 1 µM and an EC50 (Haemonchus contortus) of less than 50 µM.
